In patent publication US20230183193A1, “4-DIFLUOROMETHYL BENZOYL AMIDES WITH HERBICIDAL ACTION” (BAYER CROPSCIENCE AKTIENGESELLSCHAFT, priority 2017, published 2023):

Tests used:
Type in all cases: in vivo
Setaria viridis [1] = test: Pre-emergence herbicidal action, SETVI; conditions: dosage 320 g/ha, scored visually after 3 weeks vs untreated controls
How it was run: (§1)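 Weed seeds were laid out in sandy loam and covered with soil, then the soil surface was treated with an aqueous suspension or emulsion of the formulated compound containing 0.2% wetting agent. Pots stayed in the greenhouse for 3 weeks before damage was rated visually against untreated plants.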

Alopecurus myosuroides [2] = test: Post-emergence herbicidal action, ALOMY; conditions: 80 g/ha, Table C
How it was run: (§2)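 Herbicidal effect is rated visually as percent versus untreated plants (100% = dead, 0% = like control) about 3 weeks after spraying. Plants were sown in sandy loam in the greenhouse and sprayed on green parts at the one-leaf stage, 2 to 3 weeks post-sowing.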

Cyperus serotinus = test: Pre-emergence herbicidal action, CYPES; conditions: dosage 320 g/ha, scored visually after 3 weeks vs untreated controls
How it was run: as §1

Matricaria inodora = test: Pre-emergence herbicidal action, MATIN; conditions: dosage 320 g/ha, scored visually after 3 weeks vs untreated controls
How it was run: as §1

Stellaria media [3] = test: Post-emergence herbicidal action, STEME; conditions: 80 g/ha, Table D
How it was run: as §2

Abutilon theophrasti [4] = test: Pre-emergence herbicidal action, ABUTH; conditions: dosage 320 g/ha, scored visually after 3 weeks vs untreated controls
How it was run: as §1

ECHCG = test: Post-emergence herbicidal action, ECHCG; conditions: 80 g/ha, Table C
How it was run: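 Weed and crop plants grown in sandy loam in the greenhouse, treated at the one-leaf stage 2–3 weeks after sowing. Damage scored visually after about 3 weeks vs untreated controls (0% = control, 100% = dead).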

Pharbitis purpureum = test: Post-emergence herbicidal action, PHBPU; conditions: 80 g/ha, Table D
How it was run: as §2

Avena fatua [5] = test: Post-emergence herbicidal action, AVEFA; conditions: 80 g/ha, Table C
How it was run: as §2

Avena fatua [6] = test: Pre-emergence herbicidal action, AVEFA; conditions: dosage 320 g/ha, scored visually after 3 weeks vs untreated controls
How it was run: as §1

Alopecurus myosuroides [7] = test: Pre-emergence herbicidal action, ALOMY; conditions: dosage 320 g/ha, scored visually after 3 weeks vs untreated controls
How it was run: as §1

Setaria viridis [8] = test: Post-emergence herbicidal action, SETVI; conditions: 80 g/ha, Table C
How it was run: as §2

Abutilon theophrasti [9] = test: Post-emergence herbicidal action, ABUTH; conditions: 80 g/ha, Table D
How it was run: as §2

Viola tricolor [10] = test: Post-emergence herbicidal action, VIOTR; conditions: 80 g/ha, Table D
How it was run: as §2

Viola tricolor [11] = test: Pre-emergence herbicidal action, VIOTR; conditions: dosage 320 g/ha, scored visually after 3 weeks vs untreated controls
How it was run: as §1

Amaranthus retroflexus [12] = test: Pre-emergence herbicidal action, AMARE; conditions: dosage 320 g/ha, scored visually after 3 weeks vs untreated controls
How it was run: as §1

Stellaria media [13] = test: Pre-emergence herbicidal action, STEME; conditions: dosage 320 g/ha, scored visually after 3 weeks vs untreated controls
How it was run: as §1

Amaranthus retroflexus [14] = test: Post-emergence herbicidal action, AMARE; conditions: 80 g/ha, Table D
How it was run: as §2

Row | SMILES | herbicidal activity SETVI (Setaria viridis [1]) | herbicidal activity ALOMY (Alopecurus myosuroides [2]) | herbicidal activity CYPES (Cyperus serotinus) | herbicidal activity MATIN (Matricaria inodora) | Herbicidal activity STEME (Stellaria media [3]) | herbicidal activity ABUTH (Abutilon theophrasti [4]) | Herbicidal activity ECHCG (ECHCG) | Herbicidal activity PHBPU (Pharbitis purpureum) | herbicidal activity AVEFA (Avena fatua [5]) | herbicidal activity AVEFA (Avena fatua [6]) | herbicidal activity ALOMY (Alopecurus myosuroides [7]) | herbicidal activity SETVI (Setaria viridis [8]) | herbicidal activity ABUTH (Abutilon theophrasti [9]) | herbicidal activity VIOTR (Viola tricolor [10]) | herbicidal activity VIOTR (Viola tricolor [11]) | herbicidal activity AMARE (Amaranthus retroflexus [12]) | Herbicidal activity STEME (Stellaria media [13]) | herbicidal activity AMARE (Amaranthus retroflexus [14])
1 | CCn1nnnc1NC(=O)c1ccc(C(F)F)c([S+](C)[O-])c1F (stereo not drawn) [Example 2-38] | 100% | 90% | 100% | 100% | 100% | 100% | 100% | 90% | 90% | 100% | 100% | 100% | 90% | 100% | 100% | 100% | 100% | 100%
2 | CCc1c(C(=O)Nc2nnnn2CC)ccc(C(F)F)c1S(C)(=O)=O [Example 2-15] | 100% | 80% | 100% | 100% | 100% | 100% | 90% | 80% | 100% | 100% | 100% | 100% | 100% | 100% | 100% | 100% | 100% | 100%
3 | CC[S+]([O-])c1c(C(F)F)ccc(C(=O)Nc2nnnn2C)c1C1CC1 (stereo not drawn) [Example 1-29] | 100% | 100% | 100% | 100% | 100% | 100% | 100% | 100% | 90% | 100% | 100% | 100% | 100% | 100% | 100% | 100% | 100% | 100%
4 | Cn1nnnc1NC(=O)c1ccc(C(F)F)c(S(C)(=O)=O)c1Br [Example 1-63] | 100% | 90% | 100% | 100% | 100% | 100% | 90% | 100% | 100% | 100% | 100% | 100% | 100% | 100% | 100% | 100% | 100% | 100%
5 | CCS(=O)(=O)c1c(C(F)F)ccc(C(=O)Nc2nonc2Cl)c1C [Example 6-6] | 100% | 80% | 80% | 100% | 100% | 100% | 90% | 100% | 80% | 90% | 90% | 90% | 80% | 100% | 100% | 90% | 90% | 80%
6 | CCSc1c(C(F)F)ccc(C(=O)Nc2ncnn2C)c1Cl [Example 4-52] | 100% | 90% | 80% | 100% | 90% | 100% | 100% | 100% | 100% | 100% | 100% | 100% | 90% | 90% | 100% | 100% | 100% | 100%
7 | CCn1nnnc1NC(=O)c1ccc(C(F)F)c([S+](C)[O-])c1C1CC1 (stereo not drawn) [Example 2-26] | 100% | 90% | 90% | 100% | 100% | 100% | 100% | 90% | 100% | 100% | 100% | 100% | 90% | 100% | 100% | 100% | 100% | 100%
8 | CCc1c(C(=O)Nc2nnnn2CC)ccc(C(F)F)c1[S+]([O-])CC (stereo not drawn) [Example 2-17] | 100% | 90% | 100% | 100% | 100% | 100% | 90% | 100% | 100% | 100% | 100% | 90% | 100% | 100% | 100% | 100% | 100% | 100%
